Laboratory results taken from PMC12040169 (PLOS Biology, 2025).

Experiment: in vitro
Conditions: human, hela cells, % viability

Compound	viability at 28.5 h, 10 µM [%]
Cc1nc2ccc(NC(=O)Nc3ccnc4cccnc34)cc2o1 [CBK085498]	90
CC[C@H](C)[C@H](NC(=O)C1CCN(S(=O)(=O)c2ccc(Cl)c(C(F)(F)F)c2)CC1)C(=O)O [CBK297117]	91.5
C=CCNc1nccnc1-c1ccc(C(C)=O)s1 [CBK037052]	88.8
Cl/C(=C\c1ccccc1)CN1CCOCC1 [CBK261892]	114
Cc1cc(C)n(CCC(=O)N2CCC(c3ccncc3)CC2)n1 [CBK283529]	94.1
O=C(O)CC1SC(N/N=C/c2ccc(-c3ccc(Cl)cc3[N+](=O)[O-])o2)=NC1=O (stereo not drawn) [CBK264507]	108
c1ccc2cc(-c3cncc(NCc4ccncc4)n3)ccc2c1 [CBK037899]	92.2
Nc1ncc(-c2ccoc2)nc1-c1ccc(C(=O)O)cc1 [CBK063972]	89.6
COc1ccc2c(c1Br)C=C(n1ccnc1)CC2 [CBK017808]	76.9
COCCNc1nccnc1-c1ccccc1 [CBK088555]	105
Nc1nc2c(nc(OCc3ccccc3)n2C2OC(CO)C(O)C2O)c(=O)[nH]1 (stereo not drawn) [CBK201247]	80.6
Cc1nccn1CCNC(=O)CC1C(=O)N(C)c2ccccc21 (stereo not drawn) [CBK281977]	101
O=C1c2ccccc2CN1CCNS(=O)(=O)c1ccc2oc3ccccc3c2c1 [CBK264918]	98.9
COc1ccccc1N1CCN(CCNC(=O)Nc2cccc(C)c2C)CC1 [CBK266839]	90.2
Fc1ccc(OCCNCC2NCCc3c2[nH]c2ccccc32)cc1 (stereo not drawn) [CBK066972]	92.8
c1ccc(-c2nc(-c3ccncc3)[nH]c2-c2ccccc2)cc1 [CBK291155]	85.3
COc1ccc(-c2noc(CN(C(C)=O)C3CCCCC3)n2)cc1 [CBK270264]	111
CCOc1ccccc1NC(=O)C(C)Oc1ccc(OC)cc1 (stereo not drawn) [CBK266648]	39.6

Compound	viability at 28.5 h, 10 µM [%]
O=C(CN1CCCC2(CCN(C(=O)Cc3c[nH]c4ccccc34)C2)C1)c1ccsc1 (stereo not drawn) [CBK132053]	96.3
CCCCOc1ccc(-c2ccc(C#N)cc2)cc1 [CBK056958]	93
C=Cn1ncc(CN2CCC(O)(c3ccccc3C)CC2)c1C [CBK282582]	88.6
CC(=O)Nc1ccc(S(=O)(=O)N(c2ccc(C(C)(C)C)cc2)C2CCNCC2)cc1 [CBK165062T]	90.4
O=C(O)CN1C(=O)C(=O)/C(=C(O)\C=C\c2ccccc2)C1c1ccccc1 (stereo not drawn) [CBK286551]	86.8
CC1(C)CCCCC1CC(=O)NS(=O)(=O)c1cccc(-c2nnco2)c1 (stereo not drawn) [CBK306477]	79.3
Cn1nccc1C(=O)NC(Cc1cccs1)c1ccccn1 (stereo not drawn) [CBK285207]	96.1
Cc1nnc(N/N=C/c2cn(Cc3c(F)cccc3Cl)c3ccccc23)n1N [CBK278277C]	86.8
CC(=O)Nc1ccc(/C=N/c2ccccc2)cc1 [CBK012258]	96.4
CC(=O)Nc1ccc(-c2cccc(COC3CCN(C(=O)Cc4cc(F)cc(F)c4F)CC3)c2)cc1 [CBK149489]	89.2
Cc1nn(CC(C)C)c(Cl)c1C(=O)Nc1nc2ccc(F)cc2s1 [CBK252188]	90.4
CCn1c(/C=C/C2=CCN(C)CC2)nc2ccccc21 [CBK283745]	91.8
O=C(Nc1nnc(C2=COCCO2)o1)c1ccco1 [CBK287412]	95.5
CCn1ncc2c1CCCC2NC1CCN(CC(F)(F)F)C1=O (stereo not drawn) [CBK305206]	89.5
O=S(=O)(c1csc2ccccc12)N1CCOCC1 [CBK062401]	90.7
Cn1ncc(Cl)c1C1CCCCCN1S(=O)(=O)c1ccc2[nH]c(=O)[nH]c(=O)c2c1 (stereo not drawn) [CBK286303]	102
CC(NS(=O)(=O)c1ccc(CCC(=O)O)cc1)c1ccccc1 (stereo not drawn) [CBK267058]	88.1
c1ccc(Cn2cc(-c3nccnc3OCCn3ccnc3)cn2)cc1 [CBK107102]	95.5
